Reference: patent US4507315A, “Hypoglycaemic and hypolipidaemic benzamide substituted (1H-) imidazole derivatives and compositions” (May & Baker Limited, priority 1982, dated 1985)
Values joined by “and” are separate entries in the source; they are usually repeats but may differ in a detail not shown here. Equal entries are not always repeated.

How the values were obtained:
Format in all cases: in vivo
[1] = system: Diabetic mice (strain C 57, black, MRI derived Obese/Obese); test: Hypoglycaemic Activity in Diabetic Mice (oral, 3 days); details: for change in vivo at 200 mg/kg / change in blood glucose compared with control: 200 mg/kg body weight per day; for change in vivo at 30 mg/kg: 30 mg/kg body weight per day; for change in vivo at 100 mg/kg: 100 mg/kg body weight per day
Method: Diabetic mice (strain C 57, black, MRI derived Obese/Obese) of either sex each weighing between 45 and 70 g were given the test compound orally in tragacanth mucilage at a dose of 5,10,30,100,200 or 500 mg/kg body weight per day for 3 days. Three hours after the last dose the animals were killed with carbon dioxide and bled by cardiac puncture. The blood glucose levels were assessed by the glucose-oxidase method of GOD-Perid. Control groups (given doses of unmedicated tragacanth mucilage) were included with each test. The percentage reduction in the concentration of blood glucose was calculated by comparison with the simultaneous controls, for each of the test compounds used.

[2] = system: Male Wistar rats; test: Hypolipidaemic Activity in Rats; details: oral, last 3 days of 10-day cholesterol/cholic acid diet
Method: Male Wistar rats each weighing between 120 and 150 g were caged in groups of eight and fed a pelleted diet incorporating 0.5% w/w cholesterol and 0.25% w/w cholic acid for 10 days. For the last 3 days of that period the test compound was administered orally at a dose of 30, 100 or 200 mg/kg body weight per day in tragacanth mucilage.
At noon on day 10 the animals were killed by inhalation of carbon dioxide from solid carbon dioxide. A sample of blood was removed by cardiac puncture and the serum cholesterol and serum triglycerides were analysed by means of an auto-analyser.
Control group (receiving only doses of unmedicated tragacanth mucilage) were included with each test.
The percentage reductions in the concentrations of serum cholesterol and serum triglycerides were calculated by comparison with the simultaneous controls, for each concentration of the test compound used.

[3] = system: Diabetic mice (strain C 57, black, MRI derived Obese/Obese); test: Hypoglycaemic Activity in Diabetic Mice (oral, 8 days, W hydrochloride); details: male diabetic mice
Method: Groups of diabetic mice (strain C 57, black, MRI derived Obese/Obese) of male sex of mean weight between 43 and 46 g were given the test compound W hydrochloride orally in tragacanth mucilage at a dose of 2, 5 or 100 mg/kg body weight per day for 8 days. Three hours after the last dose the animals were bled from the tail vein. The blood glucose levels were assessed by the glucose-oxidase method of GOD-Perid. Control groups (given doses of unmedicated tragacanth mucilage) were included with each test. The percentage reduction in the concentration of blood glucose was calculated by comparison with the simultaneous controls.

[4] = system: Rats (Sprague-Dawley); test: Hypoglycaemic Activity in Fasted Rats; details: 100 mg/kg body weight per day, oral, 4 days, fasted male Sprague-Dawley rats
Method: Rats (Sprague-Dawley) of male sex each weighing between 171 and 174 g were given the test compound W hydrochloride orally in tragacanth mucilage at a dose of 100 mg/kg body weight per day for 4 days. Four hours after the third dose the animals were kept without food up to and beyond the fourth dose. Three hours after the last dose the animals were bled from the tail vein. The blood glucose levels were assessed by the glucose-oxidase method of GOD-Perid. Control groups (given doses of unmedicated tragacanth mucilage) were included with each test. The percentage reduction in the concentration of blood glucose was calculated by comparison with the simultaneous controls.

[5] = Mus musculus, po, 72 h, read-out: change in blood glucose compared with control

CC(CCNC(=O)c1ccccc1NS(=O)(=O)c1ccc(Cl)cc1)n1ccnc1 (racemic) [WW, (±)-2-(4-chlorobenzenesulphonamido)-N-(3-imidazol-1-ylbutyl)benzamide]
change in vivo at 200 mg/kg [1, 5]: -24%

O=C(NCCCn1ccnc1)c1ccccc1NS(=O)(=O)c1ccc(Cl)cc1 [A, 2-(4-chlorobenzenesulphonamido)-N-(3-imidazol-1-ylpropyl)benzamide]
change in vivo at 30 mg/kg [1, 5]: -13%
change in vivo at 100 mg/kg [1, 5]: -49%
% change in serum cholesterol compared with control ([2]; 30 mg/kg body weight per day): -13%
% change in serum triglycerides compared with control ([2]; 30 mg/kg body weight per day): +67%
% change in serum cholesterol compared with control ([2]; 100 mg/kg body weight per day): -35%
% change in serum triglycerides compared with control ([2]; 100 mg/kg body weight per day): +36%
% change in serum cholesterol compared with control ([2]; 200 mg/kg body weight per day): -82% and -83%

O=C(NCCCn1ccnc1)c1ccccc1NS(=O)(=O)c1cccc(Cl)c1 [B, 2-(3-chlorobenzenesulphonamido)-N-(3-imidazol-1-ylpropyl)benzamide]
change in vivo at 200 mg/kg [1, 5]: -60%

O=C(NCCCn1ccnc1)c1ccccc1NS(=O)(=O)c1ccc(Br)cc1 [D, 2-(4-bromobenzenesulphonamido)-N-(3-imidazol-1-ylpropyl)benzamide]
% change in serum cholesterol compared with control ([2]; 200 mg/kg body weight per day): -63%
% change in serum triglycerides compared with control ([2]; 200 mg/kg body weight per day): -59%

O=C(NCCCn1ccnc1)c1ccccc1NS(=O)(=O)c1ccccc1 [E, 2-(benzenesulphonamido)-N-(3-imidazol-1-ylpropyl)benzamide]
% change in serum cholesterol compared with control ([2]; 200 mg/kg body weight per day): -31%
% change in serum triglycerides compared with control ([2]; 200 mg/kg body weight per day): +55%

Cc1ccc(S(=O)(=O)Nc2ccccc2C(=O)NCCCn2ccnc2)cc1 [F, 2-(4-methylbenzenesulphonamido)-N-(3-imidazol-1-yl-propyl)benzamide]
change in vivo at 200 mg/kg [1, 5]: -32%
% change in serum cholesterol compared with control ([2]; 200 mg/kg body weight per day): -72%
% change in serum triglycerides compared with control ([2]; 200 mg/kg body weight per day): -60%

Cc1ccc(S(=O)(=O)Nc2ccccc2C(=O)NCCCn2ccnc2)cc1C [G, 2-(3,4-dimethylbenzenesulphonamido)-N-(3-imidazol-1-ylpropyl)benzamide]
change in vivo at 200 mg/kg [1, 5]: -25%

O=C(NCCCn1ccnc1)c1cc(Cl)ccc1NS(=O)(=O)c1ccc(Cl)cc1 [I, 5-chloro-2-(4-chlorobenzenesulphonamido)-N-(3-imidazol-1-ylpropyl)benzamide]
change in vivo at 200 mg/kg [1, 5]: -57%

O=C(NCCCn1ccnc1)c1ccccc1NS(=O)(=O)c1cc(Cl)ccc1Cl [J, 2-(2,5-dichlorobenzenesulphonamido)-N-(3-imidazol-1-ylpropyl)benzamide]
change in vivo at 200 mg/kg [1, 5]: -42%

Cc1cn(CCCNC(=O)c2ccccc2NS(=O)(=O)c2ccc(Cl)cc2)cn1 [N, 2-(4-chlorobenzenesulphonamido)-N-[3-(4-methylimidazol-1-yl)propyl]benzamide]
change in vivo at 200 mg/kg [1, 5]: -48%

O=C(NCCCn1ccnc1)c1ccccc1NS(=O)(=O)c1ccc(F)cc1F [OO, 2-(2,4-difluorobenzenesulphonamido)-N-(3-imidazol-1-ylpropyl)benzamide]
change in vivo at 200 mg/kg [1, 5]: -35%

Cc1ccccc1S(=O)(=O)Nc1ccccc1C(=O)NCCCn1ccnc1 [QQ, 2-(2-methylbenzenesulphonamido)-N-(3-imidazol-1-ylpropyl)benzamide]
change in vivo at 200 mg/kg [1, 5]: -43%

O=C(NCCn1ccnc1)c1ccccc1NS(=O)(=O)c1ccc(Cl)cc1 [VV, 2-(4-chlorobenzenesulphonamido)-N-(2-imidazol-1-ylethyl)benzamide]
change in vivo at 200 mg/kg [1, 5]: -53%

Cl.O=C(NCCCn1ccnc1)c1ccccc1NS(=O)(=O)c1cccc(C(F)(F)F)c1 [W hydrochloride, 2-(3-trifluoromethylbenzenesulphonamido)-N-(3-imidazol-1-ylpropyl)benzamide hydrochloride]
change in blood glucose compared with control [1]: -62%
change in vivo at 5 mg/kg ([1]; Mus musculus, po, 72 h, 5 mg/kg body weight per day, read-out: change in blood glucose compared with control): -25%
change in vivo at 10 mg/kg ([1]; Mus musculus, po, 72 h, 10 mg/kg body weight per day, read-out: change in blood glucose compared with control): -29%
change in vivo at 30 mg/kg [1, 5]: -58%
change in vivo at 100 mg/kg [1, 5]: -50%
change in vivo at 500 mg/kg ([1]; Mus musculus, po, 72 h, 500 mg/kg body weight per day, read-out: change in blood glucose compared with control): -46%
% change in blood glucose compared with control ([3]; 2 mg/kg body weight per day): -25%
% change in blood glucose compared with control ([3]; 5 mg/kg body weight per day): -28%
% change in blood glucose compared with control ([3]; 100 mg/kg body weight per day): -50%
% change in blood glucose compared with control [4]: -26%

O=C(NCCCn1ccnc1)c1ccccc1NS(=O)(=O)c1cccc(C(F)(F)F)c1 [W, 2-(3-trifluoromethylbenzenesulphonamido)-N-(3-imidazol-1-ylpropyl)benzamide]
change in blood glucose compared with control [1]: -68%

O=C(NCCCn1ccnc1)c1ccccc1NS(=O)(=O)c1ccc(Cl)c(Cl)c1 [X, 2-(3,4-dichlorobenzenesulphonamido)-N-(3-imidazol-1-ylpropyl)benzamide]
change in vivo at 200 mg/kg [1, 5]: -58%

O=C(NCCCn1ccnc1)c1ccccc1NS(=O)(=O)c1ccc(Cl)cc1Cl [Y, 2-(2,4-dichlorobenzenesulphonamido)-N-(3-imidazol-1-ylpropyl)benzamide]
change in vivo at 200 mg/kg [1, 5]: -51%
